In one test the test system is Escherichia coli (Ec). The experiment in a line: Minimum inhibitory concentration (MIC), bacteria in nutrient agar. It counts as cell-based, Escherichia coli ATCC 11229. The settings on record: 48 hours. As to the method: (§1) The minimum inhibitory concentration (MIC) for the compounds listed in Table I is determined for 9 bacteria, using nutrient agar, and 7 yeast and fungi, using malt yeast agar. A one percent solution of the test compound is prepared in a mixture of acetone and water.
(§2) Nutrient agar is prepared at pH 6.8, representing a neutral medium, and at pH 8.2, representing an alkaline medium. The nutrient agars are prepared by adding 23 g of nutrient agar to one liter of deionized water. In addition, the alkaline medium is prepared by adjusting a 0.04M solution of N-[tris-(hydroxymethyl)methyl]glycine buffered deionized water with concentrated sodium hydroxide to a pH of 8.5.
(§3) The test tubes containing the agar are cooled in a water bath until the temperature of the agar is 48° C. Then, an appropriate amount of the one percent solution of the test compound is added (except in the controls where no compound is added) to the respective test tubes so that the final concentrations are 500, 250, 100, 50, 25, 10, 5, 2.5, 1.0 and zero parts per million of the test compound in the agar, thus having a known concentration of test compound dispersed therein. The contents of the test tubes are then transferred to respective petri plates. After drying for 24 hours, the petri plates containing nutrient agar are inoculated with bacteria and those containing malt yeast agar are inoculated with yeast and fungi.
(§4) The inoculation with bacteria is accomplished by using the following procedure. Twenty-four hour-cultures of each of the bacteria are prepared by incubating the respective bacteria in tubes containing nutrient broth for 24 hours at 30° C. in a shaker. Dilutions of each of the 24 hour-cultures are made so that nine separate suspensions (one for each of the nine test bacteria) are made, each containing 10^8 colony forming units (CFU) per mL of suspension of a particular bacteria. Aliquots of 0.3 mL of each of the bacterial suspensions are used to fill the individual wells of Steer's Replicator. For each microbial suspension, 0.3 mL was used to fill three wells (i.e., three wells of 0.3 mL each) so that for the nine different bacteria, 27 wells are filled. The Steer's Replicator is then used to inoculate both the neutral and alkaline pH nutrient agar petri plates.
(§5) The inoculated petri plates are incubated at 30° C. for 48 hours and then read to determine if the test compound which is incorporated into the agar prevented growth of the respective bacteria.
(§6) Table II lists the bacteria, yeast and fungi used in the MIC test described above along with their respective American Type Culture Collection (ATCC) identification numbers.
(§7) In Tables III and IV, the MIC values of the compounds described in Table I as compared to the MIC of a standard commercial preservative (with 1-(3-chloroallyl)-3,5,7-triaza-1-azoniaadamantane chloride as the active agent and referred to in Tables III and IV as "STANDARD I") are set forth for the bacteria organisms and yeast/fungi organisms which are listed in Table II.

The test system of test [1] is Penicillium chrysogenum (Pc). Kind of test: Minimum inhibitory concentration (MIC), yeast/fungi in malt yeast agar. It is filed as cell-based, Penicillium chrysogenum ATCC 9480. The following applies: 30° C., 72 hours for fungi. As to the method:
as §1
(§8) Malt yeast agar is prepared by adding 3 g yeast extract and 45 g malt agar per liter of deionized water. The specific agar is dispensed in 30 mL aliquots into 25×200 mm test tubes, capped and autoclaved for 15 minutes at 115° C.
as §3
(§9) The inoculation with the yeast and fungi is accomplished as follows. Cultures of yeast and fungi are incubated for seven days on malt yeast agar at 30° C. These cultures are used to prepare suspensions by the following procedure. A suspension of each organism is prepared by adding 10 mL of sterile saline and 10 microliters of octylphenoxy polyethoxy ethanol to the agar slant of yeast or fungi. The sterile saline/octylphenoxy polyethoxy ethanol solution is then agitated with a sterile swab to suspend the microorganism grown on the slant. Each resulting suspension is diluted into sterile saline (1 part suspension to 9 parts sterile saline). Aliquots of these dilutions are placed in individual wells of Steer's Replicator and petri plates inoculated as previously described. The petri plates are incubated at 30° C. and read after 48 hours for yeast and 72 hours for fungi.
as §6, §7

In test [2] the test system is Salmonella choleraesuis (Sc). The experiment in a line: Minimum inhibitory concentration (MIC), bacteria in nutrient agar. It is filed as cell-based, Salmonella choleraesuis ATCC 10708. The following applies: Salmonella enterica, 48 hours. As to the method: as §1, §2, §3, §4, §5, §6, §7
The test system of the next test is Candida albicans (Ca). The experiment in a line: Minimum inhibitory concentration (MIC), yeast/fungi in malt yeast agar. It is filed as cell-based, Candida albicans ATCC 10231. The following applies: 30° C., 48 hours for yeast. As to the method:
as §1, §8, §3, §9, §6, §7

Test [3] deals with Klebsiella pneumoniae (Kp). The experiment in a line: Minimum inhibitory concentration (MIC), bacteria in nutrient agar. It counts as cell-based, Klebsiella pneumoniae ATCC 8308. The settings on record: 48 hours. As to the method: as §1, §2, §3, §4, §5, §6, §7
The test system of another test is Aspergillus niger (An). The experiment in a line: Minimum inhibitory concentration (MIC), yeast/fungi in malt yeast agar. It counts as cell-based, Aspergillus niger ATCC 16404. The following applies: 30° C., 72 hours for fungi. As to the method: as §1, §8, §3, §9, §6, §7
The next test deals with Proteus vulgaris (Pv). The experiment in a line: Minimum inhibitory concentration (MIC), bacteria in nutrient agar. It is filed as cell-based, Proteus vulgaris ATCC 881. The following applies: 48 hours. How it is done:
as §1, §2, §3, §4, §5, §6, §7

In test [4] the test system is Pseudomonas aeruginosa (Pa). Described as above. It is filed as cell-based, Pseudomonas aeruginosa ATCC 10145. The following applies: 48 hours. As to the method: as §1, §2, §3, §4, §5, §6, §7

Structures are written as SMILES. In brackets after ≈: the same amount, converted by molar mass.

Turning to `Cc1cccc(-n2nnnc2SCSC#N)c1` [VI, 1-(3-Methylphenyl)-5-thiomethylthiocyanato-1H-tetrazole], the MIC against Escherichia coli (Ec) (nutrient agar pH 6.8, 30° C.) was 500 mg/L (≈ 1900 µM); in the test on Escherichia coli (Ec) (nutrient agar pH 8.2, 30° C.), 500 mg/L (≈ 1900 µM); in test [1], less than 1 mg/L; in test [2] (nutrient agar pH 6.8, 30° C.), 500 mg/L (≈ 1900 µM); in test [2] (nutrient agar pH 8.2, 30° C.) it was 500 mg/L (≈ 1900 µM); against Candida albicans (Ca), 5 mg/L (≈ 19 µM). Moreover, the MIC in test [3] (nutrient agar pH 6.8, 30° C.) turned out to be 250 mg/L (≈ 949 µM); in test [3] (nutrient agar pH 8.2, 30° C.) it was 100 mg/L (≈ 380 µM); against Aspergillus niger (An) it was 5 mg/L (≈ 19 µM); with Proteus vulgaris (Pv) (nutrient agar pH 6.8, 30° C.) it was 100 mg/L (≈ 380 µM); against Proteus vulgaris (Pv) (nutrient agar pH 8.2, 30° C.), 100 mg/L (≈ 380 µM); in test [4] (nutrient agar pH 8.2, 30° C.), 250 mg/L (≈ 949 µM).

In the case of `N#CSCSc1nnnn1-c1ccc(Cl)cc1` [III, 1-(4-Chlorophenyl)-5-thiomethylthiocyanato-1H-tetrazole], the MIC was 25 mg/L (≈ 88.1 µM) against Escherichia coli (Ec) (nutrient agar pH 6.8, 30° C.); 250 mg/L (≈ 881 µM) against Escherichia coli (Ec) (nutrient agar pH 8.2, 30° C.); less than 1 mg/L in test [1]; 25 mg/L (≈ 88.1 µM) in test [2] (nutrient agar pH 6.8, 30° C.); 100 mg/L (≈ 352 µM) in test [2] (nutrient agar pH 8.2, 30° C.); 5 mg/L (≈ 17.6 µM) with Candida albicans (Ca). Also, the MIC is 25 mg/L (≈ 88.1 µM) in test [3] (nutrient agar pH 6.8, 30° C.); 50 mg/L (≈ 176 µM) in test [3] (nutrient agar pH 8.2, 30° C.); less than 1 mg/L against Aspergillus niger (An); 25 mg/L (≈ 88.1 µM) with Proteus vulgaris (Pv) (nutrient agar pH 6.8, 30° C.); 100 mg/L (≈ 352 µM) in the test on Proteus vulgaris (Pv) (nutrient agar pH 8.2, 30° C.); 25 mg/L (≈ 88.1 µM) in test [4] (nutrient agar pH 8.2, 30° C.).

Turning to `N#CSCSc1nnnn1C1CCCCC1` [X, 1-(Cyclohexyl)-5-thiomethylthiocyanato-1H-tetrazole], the MIC with Escherichia coli (Ec) (nutrient agar pH 6.8, 30° C.) was 250 mg/L (≈ 979 µM); in the test on Escherichia coli (Ec) (nutrient agar pH 8.2, 30° C.), 500 mg/L (≈ 1960 µM); in test [1] it was less than 1 mg/L; in test [2] (nutrient agar pH 6.8, 30° C.), 250 mg/L (≈ 979 µM); in test [2] (nutrient agar pH 8.2, 30° C.) it was 500 mg/L (≈ 1960 µM); with Candida albicans (Ca), 50 mg/L (≈ 196 µM). The minimum inhibitory concentration (MIC) in test [3] (nutrient agar pH 6.8, 30° C.) was 250 mg/L (≈ 979 µM); in test [3] (nutrient agar pH 8.2, 30° C.), 100 mg/L (≈ 392 µM); with Aspergillus niger (An) it was 5 mg/L (≈ 19.6 µM); in the test on Proteus vulgaris (Pv) (nutrient agar pH 6.8, 30° C.), 250 mg/L (≈ 979 µM); against Proteus vulgaris (Pv) (nutrient agar pH 8.2, 30° C.), 250 mg/L (≈ 979 µM); in test [4] (nutrient agar pH 6.8, 30° C.), 250 mg/L (≈ 979 µM). 250 mg/L (≈ 979 µM) was the least that counted as inhibitory in test [4] (nutrient agar pH 8.2, 30° C.) (MIC).

Take `N#CSCSc1nnnn1-c1cccc(Cl)c1` [II, 1-(3-Chlorophenyl)-5-thiomethylthiocyanato-1H-tetrazole]: the MIC against Escherichia coli (Ec) (nutrient agar pH 6.8, 30° C.) was 500 mg/L (≈ 1760 µM); against Escherichia coli (Ec) (nutrient agar pH 8.2, 30° C.), 500 mg/L (≈ 1760 µM); in test [1], less than 10 mg/L; in test [2] (nutrient agar pH 6.8, 30° C.) it was 500 mg/L (≈ 1760 µM); in test [2] (nutrient agar pH 8.2, 30° C.), 500 mg/L (≈ 1760 µM); in the test with Candida albicans (Ca), less than 10 mg/L. For the same compound, the MIC is 250 mg/L (≈ 881 µM) in test [3] (nutrient agar pH 6.8, 30° C.); 250 mg/L (≈ 881 µM) in test [3] (nutrient agar pH 8.2, 30° C.); less than 10 mg/L in the test on Aspergillus niger (An); 100 mg/L (≈ 352 µM) against Proteus vulgaris (Pv) (nutrient agar pH 6.8, 30° C.); 250 mg/L (≈ 881 µM) against Proteus vulgaris (Pv) (nutrient agar pH 8.2, 30° C.); 500 mg/L (≈ 1760 µM) in test [4] (nutrient agar pH 8.2, 30° C.).
